In patent publication US11246856B2, “Methods of treating resistant cancers” (University of Maryland, Baltimore, priority 2017, dated 2022):

Assays:
Format in all cases: cell-based
A375-PLX-R cells = experiment: Cell proliferation, PLX4032-resistant A375-PLX-R cells; conditions: ERK1/2 inhibitor treatment, FIG. 5H
Protocol: (§1) A375, SK-MEL-5 and SK-MEL-28 cell lines were maintained in DMEM growth medium containing 10% FCS, 2 mM L-glutamine and 1 mM sodium pyruvate. The WM3248 cells were maintained in MCDB153:L15 (4:1) growth medium containing 2% FCS, […] insulin and 1.68 mM CaCl2. To create PLX4032-resistant cells, A375, SK-MEL-5, SK-MEL-28 and WM3248 cells were treated with […] in monolayer culture in growth medium for several weeks. The surviving cells were then expanded and cultured in increasing doses of PLX4032 up to […]. The resulting PLX4032-resistant cells, designated PLX4032-resistant (e.g., A375-PLX-R) were routinely maintained in the presence of […] PLX4032.

[1] = test system: SKMELS-PLX-R, SKMEL28-PLX-R and WM3248-PLX-R cells; experiment: Cell proliferation, other PLX4032-resistant lines; conditions: ERK1/2 inhibitor treatment, FIG. 5I
Protocol: as §1
This predicts that the BRAF inhibitors-resistant cells should remain sensitive to ERK1/2 inhibitors. To assess the role of ERK1/2 PLX4032 resistant cells were treated with SCH772984, a specific inhibitor of ERK1/2 (31), and the impact on cell proliferation was monitored.

[2] = test system: YAP1, TAZ and TEAD in A375 and A375-PLX-R cells; experiment: YAP1/TAZ/TEAD mRNA and protein level after verteporfin, monolayer cells; conditions: proteasome inhibitor with verteporfin, FIG. 4I
Protocol: Equivalent amounts of protein were electrophoresed on denaturing and reducing 10% polyacrylamide gels and transferred to nitrocellulose membrane. The membrane was blocked by 5% nonfat dry milk for one hour and incubated with 1:1000 primary antibody in 5% nonfat dry milk. Blots were rinsed in TBS-T and then incubated with secondary antibodies (1:5000) for 2 h. Secondary antibody binding was visualized using ECL Prime (Amersham) chemiluminescence detection technology. For immunostaining, cells were harvested, suspended in growth medium, and plated in LAB-TEK II Chamber Slide System. After 24 h, the cells were fixed with 4% paraformaldehyde at room temperature for 15 min, washed three with phosphate-buffered saline, in 0.1% Triton X-100 for 15 min, washed with phosphate-buffered saline, and blocked for 1 h with phosphate-buffered saline containing 7.5% fetal calf serum. Primary antibodies were added, and the slides incubated overnight at 4° C. Cells were then washed three times with phosphate-buffered saline and incubated 1 h with the appropriate Alexa Flour fluorescence probe-conjugated secondary antibody. After additional washing, the cells were stained with DAPI for 10 min prior to imaging.
Total RNA was isolated using Illustra RNAspin mini kit (GE Healthcare), and 1 μg of RNA was used for cDNA synthesis. Gene expression was measured by real time PCR using Light Cycler 480 SYBR Green I Master Mix (04-707 516 001) from Roche Diagnostics (Indianapolis, Ind.). The signals were normalized using cyclophilin A control primers. The gene specific primers used for detection of mRNA levels were as follows: cyclophilin A (forward, 5′-[…] (SEQ ID NO: 3); reverse, 5′-[…] (SEQ ID NO: 4)), TAZ (forward, 5′-GTATCCCAGCCAATC TCG (SEQ ID NO: 5); reverse, 5′-TTCTGAGTGGGGTGGTTC (SEQ ID NO: 6)) and YAP1 (forward, 5′-[…] (SEQ ID NO: 7); reverse, 5′-[…], (SEQ ID NO: 8)) (11).
To understand the mechanism of verteporfin action, monolayer A375 and A375-PLX-R cells were treated with […] verteporfin for 24 h and the impact on YAP1/TAZ mRNA and protein level was monitored. […] The proteasome is known to regulate YAP1/TAZ level (29,30) and so whether the proteasome was responsible for the observed reductions was examined.

Structure (SMILES) | A375-PLX-R cells number (A375-PLX-R cells) | proliferation of PLX4032-resistant cells [1] | reversal of verteporfin-dependent reduction in YAP1, TAZ and TEAD level [2]
O=C(Nc1ccc2[nH]nc(-c3ccncc3)c2c1)[C@@H]1CCN(CC(=O)N2CCN(c3ccc(-c4ncccn4)cc3)CC2)C1 [SCH772984] | time-dependent reduction | reduced | –
CC(=O)N[C@@H](CSC(=O)[C@]1([C@@H](O)C(C)C)NC(=O)[C@H](C)[C@@H]1O)C(=O)O [lactacystin] | – | – | not reversed
